Entries after “also recorded” stand apart in the source; their conditions may differ.
Legend:
WT strain BY4741 = test: cisplatin/NSC combination treatments, fraction of colony forming cells; assay type: cell-based, yeast; conditions: 2 hours at 30° C. in water
Method: This enhancement of cisplatin sensitivity by NSC109268 was quantified. We also tested the chemically related compound NSC 109272. Cells of a logarithmic-phase culture of WT strain BY4741 were incubated for 2 hours at 30° C. in water containing the combinations of NSC109268 or NSC109272 and cisplatin shown in Table 2. The fraction of colony forming cells was determined on solid YPD medium.

[1] = system: cisplatin resistant ovarian cancer cells (2008/IC3); test: MTS cell survival, cisplatin plus NSC109268; assay type: cell-based, human
Method: (§1) Based on the cisplatin result in yeast, the inventors explored if a similar effect can be detected in human cells. […] Survival was determined in the presence or absence of compound NSC109268 using Cell Titer 96 Aqueous Cell Proliferation Assay kit from Promega, Madison, Wis. All cultures, unless specified otherwise, were maintained in growth medium composed of RPMI with 2 mM L-glutamine, 100 units/ml of Penicillin, and 100 μg/ml Streptomycin, supplemented with 10% fetal bovine serum under a humidified atmosphere of 95% air, 5% CO2 at 37° C. Briefly, cells were plated in 96-well tissue culture plates at 5-8×10^3 cells/well and allowed to attach overnight in growth medium. The following day, cells were rinsed twice in DMEM and further incubated in serum-free medium for 24 h. Cells were then treated with cisplatin [0-100 μM] in the presence of NSC109268 [0, 1, 2, 3 μM] for 48 h. Dose-response studies were initially done to determine appropriate dosages for the drugs and their vehicles. Negative controls involved the use of DMF, vehicle for cisplatin (˜0 μM) or DMSO, vehicle for NSC109268 (˜0 μM). […] MTS is taken up by live cells where it is reduced by the dehydrogenase enzymes and released back into the culture medium as a yellow formazan product. The amount of formazan product measured in terms of absorbances is directly proportional to the number of live cells in the cultures. Thus, absorbance readings at 490 nm were taken after 1 h and converted to cell numbers based on standard curves. Standard curves were done using cells maintained in RPMI in 96-well plates at the same time. Experiments were done in triplicate wells at least 4 times. Statistical analyses were done using ANOVA. […] Several series of studies were conducted using DMF (solvent control=0) and various concentrations of cisplatin in combination with (DMSO (solvent control=0), 1 μM NSC1092682 μM NSC109268, and 3 μM NSC109268. Survival was plotted in a logarithmic scale against cisplatin dose, with different symbols indicating the amount of added NSC109268 (see FIG. 1A insert), for the RWPE-1 normal prostate cell line (FIG. 1A), PC3 prostate cancer cells (FIG. 1B), cisplatin-sensitive ovarian cancer cells (2008) (FIG. 1C) and cisplatin-resistant ovarian cancer cells (2008/IC3) (FIG. 1D).

wild-type yeast = test: sensitivity towards DNA damaging agents, survival of macrocolony forming cells, wild type; assay type: cell-based; set-up: key: +: increased resistance; −: decreased resistance; conditions: strain WT
Method: (§2) As another example, the drug streptonigrin was used as a double-strand break inducing drug. After treatment of logarithmically growing yeast cultures for 1 h at 30° C. in YPD medium (1% yeast extract, 2% peptone, 2% dextrose), lethality was measured by inability of colony formation on YPD agar plates. […] The used concentration of 50-100 μg/ml results in 80% survival after 1 h incubation.
(§3) In summary, the incubation of logarithmic phase cells of wild-type yeast and a double-strand break repair deficient derivative (rad51) (Amberg, D. C., D. J. Burke, and J. N. Strathern. 2005. Methods in Yeast Genetics: A Cold Spring Harbor Laboratory Course Manual, 2005 Edition. Cold Spring Harbor Laboratory Press, Cold Spring Harbor, N.Y.) with compound NSC109268 had the following effects on sensitivity towards DNA damaging agents, measured as survival of macrocolony forming cells (+increased resistance, −decreased resistance, ND not determined): Table 1 summarizes the effects of NSC109268 on senstivity towards DNA Damaging Agents in repair-proficient wild type and rad 51^− cells.

yeast cultures [2] = test: lethality of logarithmically growing yeast cultures, colony formation on YPD agar; assay type: cell-based
[3] = system: checkpoint activation (DNA-damage-induced interaction between two selected checkpoint proteins); test: two-hybrid assay-based yeast screen for agents that modify cell cycle checkpoint activation; conditions: in response to the topoisomerase I inhibitor camptothecin
Method: A two-hybrid assay-based yeast system was used to screen small-molecule compound libraries for agents that modify cell cycle checkpoint activation. Checkpoint activation is measured as the DNA-damaged-induced increased interaction between two selected checkpoint proteins.

[4] = system: double-strand break repair deficient derivative (rad51) yeast; test: sensitivity towards DNA damaging agents, survival of macrocolony forming cells, rad51; assay type: cell-based; set-up: key: +: increased resistance; −: decreased resistance; conditions: strain rad51
Method: as §2, §3

yeast cultures [5] = test: lethality of logarithmically growing yeast cultures, colony formation on YPD agar; assay type: cell-based; remark: listed apart in the source
Method: as §2
Curiously, the opposite effect was found for other agents such hydrogen peroxide (H2O2), an oxidative agent causing base damage and strand breaks.

[6] = system: cisplatin sensitive ovarian cancer cells (2008); test: MTS cell survival, cisplatin plus NSC109268; assay type: cell-based, human; conditions: cisplatin 0-100 μM, NSC109268 0-3 μM, 48 h
Method: Based on the cisplatin result in yeast, the inventors explored if a similar effect can be detected in human cells. […] Survival was determined in the presence or absence of compound NSC109268 using Cell Titer 96 Aqueous Cell Proliferation Assay kit from Promega, Madison, Wis. All cultures, unless specified otherwise, were maintained in growth medium composed of RPMI with 2 mM L-glutamine, 100 units/ml of Penicillin, and 100 μg/ml Streptomycin, supplemented with 10% fetal bovine serum under a humidified atmosphere of 95% air, 5% CO2 at 37° C.
Briefly, cells were plated in 96-well tissue culture plates at 5-8×10^3 cells/well and allowed to attach overnight in growth medium. The following day, cells were rinsed twice in DMEM and further incubated in serum-free medium for 24 h. Cells were then treated with cisplatin [0-100 μM] in the presence of NSC109268 [0, 1, 2, 3 μM] for 48 h. […]
To determine the number of surviving cells, cells were incubated in 333 μg/ml MTS [3-(4,5-dimethylthiazol-2-yl)-5-(3-carboxymethoxyphenyl)-2-(4-sulfophenyl)-2H-tetrazolium], a tetrazolium salt, and 25 μM phenazine methosulfate (PMS), an electron coupling reagent. […] The amount of formazan product measured in terms of absorbances is directly proportional to the number of live cells in the cultures. Thus, absorbance readings at 490 nm were taken after 1 h and converted to cell numbers based on standard curves. […]

[7] = system: PC3 prostate adenocarcinoma cells; test: MTS cell survival, cisplatin plus NSC109268; assay type: cell-based, human
Method: as §1

[8] = cisplatin 0-100 μM, NSC109268 0-3 μM, 48 h
[9] = compared to cisplatin-sensitive cells (2008)

N.N.[Cl][Pt][Cl] [Cisplatin, cis-Diammineplatinum (II) dichloride, reference compound]
cell survival (fraction of colony forming cells) (WT strain BY4741; 33 μM Cisplatin alone): 71% | cell survival (fraction of colony forming cells) (WT strain BY4741; 82.5 μM Cisplatin alone): 44.5% | cell survival (fraction of colony forming cells) (WT strain BY4741; 165 μM Cisplatin alone): 21% | survival ([1]; 5 μM of cisplatin without any added NSC109268, 48 h): 85%

Copper, di-μ-chlorobis[1-[(1-piperidinyl-κN)methyl]-2-naphthalenolato-κO]di-(9CI) [NSC109268]
cell survival (fraction of colony forming cells) (WT strain BY4741; NSC109268 7.4 nM + 33 μM Cisplatin): 29% | cell survival (fraction of colony forming cells) (WT strain BY4741; NSC109268 7.4 nM + 82.5 μM Cisplatin): 25.5% | cell survival (fraction of colony forming cells) (WT strain BY4741; NSC109268 7.4 nM + 165 μM Cisplatin): 0.09% | cell survival (fraction of colony forming cells) (WT strain BY4741; NSC109268 7.4 nM, 0 μM Cisplatin): 79.5% | cell survival (fraction of colony forming cells) (WT strain BY4741; NSC109268 37 nM + 165 μM Cisplatin): <0.4% | cell survival (fraction of colony forming cells) (WT strain BY4741; NSC109268 37 nM, 0 μM Cisplatin): 10% | effect on sensitivity towards DNA damaging agent (wild-type yeast; Cisplatin): − | effect on sensitivity towards DNA damaging agent (wild-type yeast; MNNG): + | effect on sensitivity towards DNA damaging agent (wild-type yeast; Streptonigrin): + | effect on sensitivity to DNA damaging agent (yeast cultures [2]; alkylating agent (MMS)): does not seem to affect sensitivity | effect on lethality of DNA damaging agent (yeast cultures [2]; ionizing radiation (137Cs γ-radiation)): less significantly | effect on sensitivity to DNA damaging agent (yeast cultures [2]; phleomycin): does not seem to affect sensitivity | effect on sensitivity to DNA damaging agent (yeast cultures [2]; ultraviolet radiation (UV-C)): does not seem to affect sensitivity | effect on checkpoint activation [3]: interfere with checkpoint activation | effect on sensitivity towards DNA damaging agent ([4]; Cisplatin): − | effect on sensitivity towards DNA damaging agent ([4]; Ionizing radiation (137Cs)): + | effect on sensitivity towards DNA damaging agent ([4]; Phleomycin): + | survival (yeast cultures [5]; compound itself, 50-100 μg/ml, 1 h incubation): 80% | effect on sensitivity to DNA damaging agent (yeast cultures [5]; hydrogen peroxide (H2O2), simultaneous exposure): sensitivity is enhanced | effect on lethality of DNA damaging agent (yeast cultures [5]; streptonigrin, 1 h at 30° C. in YPD medium): protective effect | toxicity of the compound itself (yeast cultures [5]; yeast, 1 h at 30° C. in YPD medium): moderate toxicity | effect of combination with cisplatin on survival [6]: synergistically enhanced | effect of combination with cisplatin on survival [7, 8]: synergistically enhanced; also recorded: increases cellular sensitivity to cisplatin | toxicity of NSC109268 alone ([7]; range of concentrations that increases sensitivity to cisplatin): (virtually) non-toxic | survival ([1]; 2 μM NSC109268 without any cisplatin, 48 h): 38% | measured survival ([1]; 5 μM cisplatin/2 μM combination treatment, 48 h): 4.5% | survival expected if the effects were independent ([1]; 5 μM cisplatin/2 μM combination treatment, 85% of 38%): 32% | effect of combination with cisplatin on survival [1, 8]: synergistically enhanced | enhancement effect on cisplatin [1, 9]: much more pronounced | toxicity without added cisplatin [1, 9]: much more toxic

Copper, di-μ-chlorobis[1-[(4-morpholinyl-κN4)methyl]-2-naphthalenolato-κO]di-(9CI) [NSC109272]
cell survival (fraction of colony forming cells) (WT strain BY4741; NSC109272 1.5 nM + 165 μM Cisplatin): 4% | cell survival (fraction of colony forming cells) (WT strain BY4741; NSC109272 1.5 nM, 0 μM Cisplatin): 70%

Reference: US20080085882A1, “Compositions and Methods for Potentiation of Cancer Agents” (priority 2006, published 2008)
